Results published in the supplement of paper PMC6045584.
± gives the standard deviation of the averaged measurements.

What follows are test systems tested with COc1cc([C@@H]2c3cc4c(cc3[C@@H](O[C@@H]3O[C@@H]5CO[C@@H](C)O[C@H]5[C@H](O)[C@H]3O)[C@H]3COC(=O)[C@H]23)OCO4)cc(OC)c1O [ETOPOSIDE] (assay: surviving fraction relative to DMSO-only wells; higher = less growth inhibition). Settings: 0.5 nM; exposure time: 5 days.
Procedure, shortened: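 Tumour cell lines in log phase were plated in 384-well plates at 250–500 cells per well, then, after 24 hours, exposed continuously for five days to inhibitors at 0.5, 1, 5, 10, 50, 100, 500 and 1000 nM. Viability came from CellTiter-Glo luminescence, and surviving fraction is that signal normalised to the median of DMSO-only wells. Plates were read after 10 minutes at room temperature, and each line, screened three times, was kept only when replicate Pearson r was >0.7 and median Z' was >0.3.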
SCC36 HEADNECK showed a surviving fraction of 1.13 ± 0.12.
SCC47 HEADNECK gave a surviving fraction of 1.04 ± 0.11.
Work on SCC90 HEADNECK yielded a surviving fraction of 1.02 ± 0.099.
SG27 HEADNECK was tested, and the surviving fraction was 1.12 ± 0.081.
In the case of SG28 HEADNECK, the surviving fraction is reported as 1.18 ± 0.046.
Work on SG31 HEADNECK yielded a surviving fraction of 1.05 ± 0.092.
With SG32 HEADNECK the surviving fraction was 1.23 ± 0.076.
SG43 HEADNECK gave a surviving fraction of 1.02 ± 0.13.
For SIHA CERVIX, the surviving fraction was 1.07 ± 0.041.
SJSA1 BONE was tested, and the surviving fraction was 1.04 ± 0.022.
With SKBR3 BREAST the surviving fraction was 1.07 ± 0.027.
In the case of SNU475 LIVER, the surviving fraction is reported as 1.02 ± 0.05.
In the case of SUM44 BREAST, the surviving fraction is reported as 1.03 ± 0.026.
Work on SUM149 BREAST yielded a surviving fraction of 1.16 ± 0.04.
With SUM149.B1*.S BREAST the surviving fraction was 1.1 ± 0.042.
SUM159 BREAST showed a surviving fraction of 1.14 ± 0.18.
SYO1 SYNOVIAL showed a surviving fraction of 0.994 ± 0.042.
T47D BREAST showed a surviving fraction of 1.06 ± 0.042.
Work on U2OS BONE yielded a surviving fraction of 1.03 ± 0.034.
Test System VCAP PROSTATE has a surviving fraction of 1.19 ± 0.16.
VP229 BREAST was tested, and the surviving fraction was 1.11 ± 0.042.
With YAMATO SYNOVIAL the surviving fraction was 1.3 ± 0.12.
ZR751 BREAST gave a surviving fraction of 1.1 ± 0.04.

Same assay, conditions: 1 nM; exposure time: 5 days
With MDAMB453 BREAST the surviving fraction was 1.13 ± 0.14.
In the case of MDAMB468 BREAST, the surviving fraction is reported as 1.06 ± 0.013.
Test System MFM223 BREAST has a surviving fraction of 1.19 ± 0.14.
MG63 BONE gave a surviving fraction of 0.998 ± 0.038.
MHM BONE gave a surviving fraction of 0.999 ± 0.011.
Work on NCIH441 LUNG yielded a surviving fraction of 1.05 ± 0.037.
NOS1 BONE showed a surviving fraction of 1.01 ± 0.099.
In the case of NY BONE, the surviving fraction is reported as 1.01 ± 0.035.
With OS25HAL BONE the surviving fraction was 0.996 ± 0.018.
OSHN BONE showed a surviving fraction of 1.05 ± 0.042.
For PCI30 HEADNECK, the surviving fraction was 1.03 ± 0.025.
In the case of RDES SOFT TISSUE, the surviving fraction is reported as 1.16 ± 0.21.
S68 BREAST gave a surviving fraction of 1.1 ± 0.18.
SAOS2 BONE was tested, and the surviving fraction was 1.06 ± 0.028.
For SCC36 HEADNECK, the surviving fraction was 1.05 ± 0.18.
Test System SCC47 HEADNECK has a surviving fraction of 1.05 ± 0.039.
For SCC90 HEADNECK, the surviving fraction was 1.11 ± 0.12.
SG27 HEADNECK was tested, and the surviving fraction was 1.05 ± 0.11.
SG28 HEADNECK showed a surviving fraction of 1.19 ± 0.063.
SG31 HEADNECK gave a surviving fraction of 1.06 ± 0.04.
SG32 HEADNECK was tested, and the surviving fraction was 1.3 ± 0.13.
SG43 HEADNECK showed a surviving fraction of 1.02 ± 0.21.
In the case of SIHA CERVIX, the surviving fraction is reported as 1.036 ± 0.0067.
In the case of SJSA1 BONE, the surviving fraction is reported as 1.04 ± 0.058.
SKBR3 BREAST was tested, and the surviving fraction was 1.06 ± 0.099.
SNU475 LIVER gave a surviving fraction of 0.999 ± 0.11.
SUM44 BREAST gave a surviving fraction of 1.05 ± 0.034.
Test System SUM149 BREAST has a surviving fraction of 1.17 ± 0.061.
SUM149.B1*.S BREAST showed a surviving fraction of 1.1 ± 0.053.
SUM159 BREAST gave a surviving fraction of 1.08 ± 0.08.
In the case of SYO1 SYNOVIAL, the surviving fraction is reported as 0.997 ± 0.059.
T47D BREAST was tested, and the surviving fraction was 1.04 ± 0.03.
With U2OS BONE the surviving fraction was 1.02 ± 0.062.
Work on VCAP PROSTATE yielded a surviving fraction of 1.07 ± 0.032.
VP229 BREAST was tested, and the surviving fraction was 1.09 ± 0.16.
With YAMATO SYNOVIAL the surviving fraction was 1.32 ± 0.063.
ZR751 BREAST was tested, and the surviving fraction was 1.1 ± 0.048.

Same assay, conditions: 5 nM; exposure time: 5 days
With MDAMB453 BREAST the surviving fraction was 1.13 ± 0.057.
MDAMB468 BREAST was tested, and the surviving fraction was 1.14 ± 0.065.
MFM223 BREAST showed a surviving fraction of 1.17 ± 0.12.
For MG63 BONE, the surviving fraction was 1.05 ± 0.059.
MHM BONE gave a surviving fraction of 1.01 ± 0.021.
With NCIH441 LUNG the surviving fraction was 1 ± 0.04.
In the case of NOS1 BONE, the surviving fraction is reported as 1.33 ± 0.24.
NY BONE gave a surviving fraction of 1.07 ± 0.032.
Work on OS25HAL BONE yielded a surviving fraction of 1.01 ± 0.015.
OSHN BONE gave a surviving fraction of 1.06 ± 0.046.
PCI30 HEADNECK gave a surviving fraction of 1.02 ± 0.09.
With RDES SOFT TISSUE the surviving fraction was 1.1 ± 0.11.
With S68 BREAST the surviving fraction was 1.01 ± 0.072.
SAOS2 BONE was tested, and the surviving fraction was 1.17 ± 0.02.
SCC36 HEADNECK was tested, and the surviving fraction was 1.1 ± 0.12.
Test System SCC47 HEADNECK has a surviving fraction of 1.02 ± 0.025.
SCC90 HEADNECK showed a surviving fraction of 1.18 ± 0.092.
For SG27 HEADNECK, the surviving fraction was 0.975 ± 0.12.
For SG28 HEADNECK, the surviving fraction was 1.13 ± 0.075.
In the case of SG31 HEADNECK, the surviving fraction is reported as 1.1 ± 0.11.
Test System SG32 HEADNECK has a surviving fraction of 1.37 ± 0.11.
SG43 HEADNECK showed a surviving fraction of 0.933 ± 0.24.
In the case of SIHA CERVIX, the surviving fraction is reported as 1.08 ± 0.12.
In the case of SJSA1 BONE, the surviving fraction is reported as 1.06 ± 0.036.
SKBR3 BREAST showed a surviving fraction of 1.1 ± 0.15.
With SNU475 LIVER the surviving fraction was 1 ± 0.039.
Test System SUM44 BREAST has a surviving fraction of 1.05 ± 0.046.
Test System SUM149 BREAST has a surviving fraction of 1.21 ± 0.048.
SUM149.B1*.S BREAST was tested, and the surviving fraction was 1.11 ± 0.017.
SUM159 BREAST showed a surviving fraction of 1.1 ± 0.11.
In the case of SYO1 SYNOVIAL, the surviving fraction is reported as 0.975 ± 0.027.
T47D BREAST was tested, and the surviving fraction was 1.07 ± 0.09.
Work on U2OS BONE yielded a surviving fraction of 1.05 ± 0.025.
VCAP PROSTATE showed a surviving fraction of 1.14 ± 0.11.
VP229 BREAST gave a surviving fraction of 1.14 ± 0.24.
In the case of YAMATO SYNOVIAL, the surviving fraction is reported as 1.19 ± 0.051.
ZR751 BREAST showed a surviving fraction of 1.02 ± 0.067.

Same assay, conditions: 10 nM; exposure time: 5 days
Test System MDAMB453 BREAST has a surviving fraction of 1.13 ± 0.07.
MDAMB468 BREAST showed a surviving fraction of 1.13 ± 0.038.
MFM223 BREAST gave a surviving fraction of 1.07 ± 0.038.
Test System MG63 BONE has a surviving fraction of 1.06 ± 0.036.
MHM BONE gave a surviving fraction of 1.001 ± 0.007.
NCIH441 LUNG was tested, and the surviving fraction was 0.974 ± 0.011.
NOS1 BONE showed a surviving fraction of 1.19 ± 0.12.
Work on NY BONE yielded a surviving fraction of 1.09 ± 0.066.
OS25HAL BONE gave a surviving fraction of 1.01 ± 0.0071.
With OSHN BONE the surviving fraction was 1.06 ± 0.041.
For PCI30 HEADNECK, the surviving fraction was 1 ± 0.041.
Test System RDES SOFT TISSUE has a surviving fraction of 1.11 ± 0.071.
Work on S68 BREAST yielded a surviving fraction of 1.44 ± 0.12.
Test System SAOS2 BONE has a surviving fraction of 1.16 ± 0.049.
SCC36 HEADNECK was tested, and the surviving fraction was 1.08 ± 0.1.
Work on SCC47 HEADNECK yielded a surviving fraction of 1.08 ± 0.079.
SCC90 HEADNECK showed a surviving fraction of 1.2 ± 0.2.
In the case of SG27 HEADNECK, the surviving fraction is reported as 1.05 ± 0.14.
With SG28 HEADNECK the surviving fraction was 1.15 ± 0.044.
In the case of SG31 HEADNECK, the surviving fraction is reported as 1.13 ± 0.14.
SG32 HEADNECK gave a surviving fraction of 1.2 ± 0.17.
Work on SG43 HEADNECK yielded a surviving fraction of 0.832 ± 0.23.
In the case of SIHA CERVIX, the surviving fraction is reported as 1.11 ± 0.069.
Test System SJSA1 BONE has a surviving fraction of 1.01 ± 0.024.
With SKBR3 BREAST the surviving fraction was 1.03 ± 0.12.
In the case of SNU475 LIVER, the surviving fraction is reported as 1.03 ± 0.042.
Work on SUM44 BREAST yielded a surviving fraction of 1.06 ± 0.027.
In the case of SUM149 BREAST, the surviving fraction is reported as 1.13 ± 0.077.
Test System SUM149.B1*.S BREAST has a surviving fraction of 1.12 ± 0.07.
For SUM159 BREAST, the surviving fraction was 1.07 ± 0.058.
SYO1 SYNOVIAL showed a surviving fraction of 0.933 ± 0.023.
With T47D BREAST the surviving fraction was 1.02 ± 0.021.
Work on U2OS BONE yielded a surviving fraction of 1.047 ± 0.009.
In the case of VCAP PROSTATE, the surviving fraction is reported as 1.14 ± 0.088.
For VP229 BREAST, the surviving fraction was 1.19 ± 0.075.
YAMATO SYNOVIAL was tested, and the surviving fraction was 1.22 ± 0.18.
Work on ZR751 BREAST yielded a surviving fraction of 1.05 ± 0.076.

Same assay, conditions: 50 nM; exposure time: 5 days
In the case of MDAMB453 BREAST, the surviving fraction is reported as 1.16 ± 0.046.
MDAMB468 BREAST was tested, and the surviving fraction was 1.15 ± 0.12.
For MFM223 BREAST, the surviving fraction was 1.12 ± 0.035.
In the case of MG63 BONE, the surviving fraction is reported as 1.06 ± 0.052.
MHM BONE was tested, and the surviving fraction was 1.02 ± 0.016.
In the case of NCIH441 LUNG, the surviving fraction is reported as 1.01 ± 0.053.
Test System NOS1 BONE has a surviving fraction of 0.977 ± 0.08.
